Test results published in patent US7728128B2, “Dibenzo[c,h][1,5]naphthyridines and their use as DNA probes” (Institut National de la Sante et de la Recherche Medicate …, priority 2006, dated 2010).

Assays:
CT DNA = assay: viscometry (hydrodynamic studies) of CT DNA solutions; assay type: binding, calf
Protocol: Calf thymus (CT) DNA was dissolved in 50 mM Na-phosphate buffer, pH 7.2, to a concentration of 0.1 or 0.5 mM relative to base pairs as described in the legend for FIGS. 3A and B. DNA solution was allowed to run through a custom-made capillary viscometer and the time necessary for the meniscus to pass a certain distance was measured using a stopwatch. All experiments were performed at 23° C. Viscosity values were calculated using the equation: η=(t−t0)/t0, where t is the flow time of DNA solution (with or without dye), and t0 is the flow time of Na-phosphate buffer alone. For each control and DNA solutions with dyes flow times were measured three to five times. Viscosity of DNA solutions with dyes were calculated as (η/η0)^1/3, where η0 and η are relative viscosities of the CT DNA solution in the absence and presence of the dye, respectively. This calculation stems from the relationship which exists between the relative solution viscosity and the relative contour length (L/L0): L/L0=(η/η0)^1/3, where L stands for the apparent molecular length (Muller, W. et al., 1968, J Mol Biol, 35, 251-290). Average viscosity values and standard error of the mean (SEM) were determined using (η/η0)^1/3 values calculated for each time flow measurement.
DNA-binding dyes interact with dsDNA by intercalation or external binding, or both. External binding most often involves the minor groove of DNA (Kopka et al.; Pjura, P. E., et al., 1987, J Mol Biol, 197, 257-271). Intercalation occurs when a ligand inserts itself between the opposite strands of DNA. In order to determine the mechanism of compound I binding to dsDNA, the inventors performed hydrodynamic studies. This approach is based on the observation that intercalating molecules increase the length of DNA fragments and, consequently, enhance the viscosity of DNA solutions (Muller W. et al.; Suh, D. et al., 1995, Bioorg Med Chem, 3, 723-728). For this experiment, compound I has been compared to the known DNA intercalator ethidium bromide and to the external minor groove binder Hoechst 33258. CT DNA at 0.5 mM was mixed with drugs at 0.1 mM concentration (0.2 dye/bp ratio) and used for viscometry measurements.
The inventors then wondered whether the increase in viscosity is equally matched by the increase in fluorescence intensity. To answer this question, CT DNA at 0.1 mM (bp) was mixed with increasing amounts of compound I and viscosity measurements were performed as above. The viscosity of the DNA/compound I solutions increased up to a dye/bp ratio 1 (FIG. 3B). To correlate the increase in viscosity with fluorescence, the inventors measured fluorescence intensities at 484 nm of the compound I/DNA solutions used for the viscosity measurements.

[1] = test system: dA/dT and dG/dC homopolymers; assay: fluorescence and absorption with dA/dT and dG/dC homopolymers; assay type: binding
Protocol: Plasmid dsDNA was purified using a Qiagen Maxiprep kit and used in the supercoiled form for absorption and fluorescence studies. E. coli total RNA was bought from Ambion, dA/dT and dG/dC homopolymers were purchased from Amersham Biosciences. Calf thymus (CT) high-molecular weight DNA and Hoechst 33258 were obtained from Sigma-Aldrich. Ethidium bromide was purchased from Amresco.
Spectrometry and fluorimetry were performed using a SpectraMax384 (Molecular Devices) and a Luminescence Spectrometer LS50B (Perkin Elmer). Fluorescence emission of compound I in complex with DNA and RNA was measured in 50 mM Na phosphate buffer, pH 7.2 at room temperature. Before use, total E. coli RNA was heated to 100° C. for 1 min and immediately transferred on ice for 5 min before mixing with compound I solution. All measurements were carried out at room temperature (20-23° C.) in solutions protected from light and incubated for ˜10-15 min after dilution. The units of b/dye and bp/dye are defined as moles of RNA bases or DNA base pairs per mole of dye. Quantum yield was measured using quinine sulphate as standard as described in (Iupac Commission on Photochemistry, EPA Newsletter of November 1986, 21-29) using FLUOROMAX-3 Spex Spectrofluorometer (HORIBA) and UVIKON XL Spectrophotometer (SECOMAM).
Many intercalating dyes and minor groove-binding DNA dyes can interact differently with dA/dT or dG/dC DNA tracts. […] To investigate the properties of compound I when bound to different DNA tracts, the inventors examined its fluorescence in admixture with an excess of plasmid DNA and either dA/dT or dG/dC homopolymers. […] The peak at 484 nm was much more pronounced when plasmid DNA was replaced by the dA/dT homopolymers (see also FIG. 1F). […] In FIG. 3C, the graphs show emission spectra upon excitation at 371 nm to allow plotting the emission of free compound I. Similar results were obtained when exciting DNA/compound I complexes at 391 and 435 nm.

`COc1ccc2c(c1)c(C)nc1c3ccc(OC)cc3c(NCCCN(C)C)nc21` [Compound I, N′-(2,8-dimethoxy-12-methyl-dibenzo[c,h][1,5]naphthyridin-6-yl)-N,N-dimethyl-propane-1,3-diamine] was tested, and the “dye/bp ratio up to which viscosity increased” value (CT DNA; CT DNA 0.1 mM (bp)) was ≤ 1, the “dye/bp ratio of maximal fluorescence intensity” value (CT DNA; CT DNA 0.1 mM (bp), 484 nm) was 0.2 and the “effect on viscosity of DNA solution” value (CT DNA; CT DNA 0.5 mM, drug 0.1 mM (0.2 dye/bp ratio)) was “increasing the viscosity of the DNA solution”. For the same molecule, the “reduction of fluorescence peak at 438 nm with dG/dC homopolymer” value ([1]; 1 μM dye, homopolymer at 40 μM) was 12.7 fold, the “fluorescence at 484 nm with dG/dC homopolymer, lower compared to dA/dT” value ([1]; 1 μM dye, homopolymers at 40 μM) was 9.5 fold and the emission maximum ([1]; dA/dT homopolymers at bp/dye ratio 40) was 484 nm. The “difference in fluorescence bound to dA/dT and dG/dC homopolymers” value ([1]; dye/bp ratio 8, 5 μM dye, emission 484 nm, excitation 435 nm) was 23 fold and the “absorption at 435 nm, dG/dC superior to dA/dT” value ([1]; higher bp/dye ratios) was ~30%.
